Experiments:
potassium arsenate = compound: O=[As]([O-])(O)O.[K+] [potassium arsenate]; test: thermal stability z-score vs DMSO; higher = more thermally stabilized by treatment; settings: HeLa; arsenate concentration 1 mM
Experimental: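 Cellular thermal proteome profiling in HeLa cells treated with 1 mM arsenate for 1 h (DMSO pretreatment), heated to ten temperatures (37-66.3 °C). Soluble protein was quantified by TMT mass spectrometry relative to DMSO controls; the thermal stability score was transformed to a z-score; mean of n = 3 experiments.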

lipoamide = compound: NC(=O)CCCCC1CCSS1 [lipoamide]; test: as above; settings: HeLa, lipoamide concentration 100 µM
Experimental: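 Cellular thermal proteome profiling in HeLa cells. Cells were treated with 100 µM lipoamide for 1 h, with or without 1 mM arsenate for a further 1 h, then heated to ten temperatures (37-66.3 °C), and soluble protein was quantified by TMT mass spectrometry relative to 0.1% DMSO controls. The thermal stability score (sum of log2 fold changes minus the abundance score) was transformed to a z-score; mean of n = 3 experiments.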

[1] = arsenate co-treatment: 1 mM arsenate 1 h
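Also: each temperature applied for 3 min, abundance score taken as mean log2 fold change at the two lowest temperatures, z-score obtained by mean subtraction and division by SD.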

Chain of UniProt O15056 (O15056 whole entry): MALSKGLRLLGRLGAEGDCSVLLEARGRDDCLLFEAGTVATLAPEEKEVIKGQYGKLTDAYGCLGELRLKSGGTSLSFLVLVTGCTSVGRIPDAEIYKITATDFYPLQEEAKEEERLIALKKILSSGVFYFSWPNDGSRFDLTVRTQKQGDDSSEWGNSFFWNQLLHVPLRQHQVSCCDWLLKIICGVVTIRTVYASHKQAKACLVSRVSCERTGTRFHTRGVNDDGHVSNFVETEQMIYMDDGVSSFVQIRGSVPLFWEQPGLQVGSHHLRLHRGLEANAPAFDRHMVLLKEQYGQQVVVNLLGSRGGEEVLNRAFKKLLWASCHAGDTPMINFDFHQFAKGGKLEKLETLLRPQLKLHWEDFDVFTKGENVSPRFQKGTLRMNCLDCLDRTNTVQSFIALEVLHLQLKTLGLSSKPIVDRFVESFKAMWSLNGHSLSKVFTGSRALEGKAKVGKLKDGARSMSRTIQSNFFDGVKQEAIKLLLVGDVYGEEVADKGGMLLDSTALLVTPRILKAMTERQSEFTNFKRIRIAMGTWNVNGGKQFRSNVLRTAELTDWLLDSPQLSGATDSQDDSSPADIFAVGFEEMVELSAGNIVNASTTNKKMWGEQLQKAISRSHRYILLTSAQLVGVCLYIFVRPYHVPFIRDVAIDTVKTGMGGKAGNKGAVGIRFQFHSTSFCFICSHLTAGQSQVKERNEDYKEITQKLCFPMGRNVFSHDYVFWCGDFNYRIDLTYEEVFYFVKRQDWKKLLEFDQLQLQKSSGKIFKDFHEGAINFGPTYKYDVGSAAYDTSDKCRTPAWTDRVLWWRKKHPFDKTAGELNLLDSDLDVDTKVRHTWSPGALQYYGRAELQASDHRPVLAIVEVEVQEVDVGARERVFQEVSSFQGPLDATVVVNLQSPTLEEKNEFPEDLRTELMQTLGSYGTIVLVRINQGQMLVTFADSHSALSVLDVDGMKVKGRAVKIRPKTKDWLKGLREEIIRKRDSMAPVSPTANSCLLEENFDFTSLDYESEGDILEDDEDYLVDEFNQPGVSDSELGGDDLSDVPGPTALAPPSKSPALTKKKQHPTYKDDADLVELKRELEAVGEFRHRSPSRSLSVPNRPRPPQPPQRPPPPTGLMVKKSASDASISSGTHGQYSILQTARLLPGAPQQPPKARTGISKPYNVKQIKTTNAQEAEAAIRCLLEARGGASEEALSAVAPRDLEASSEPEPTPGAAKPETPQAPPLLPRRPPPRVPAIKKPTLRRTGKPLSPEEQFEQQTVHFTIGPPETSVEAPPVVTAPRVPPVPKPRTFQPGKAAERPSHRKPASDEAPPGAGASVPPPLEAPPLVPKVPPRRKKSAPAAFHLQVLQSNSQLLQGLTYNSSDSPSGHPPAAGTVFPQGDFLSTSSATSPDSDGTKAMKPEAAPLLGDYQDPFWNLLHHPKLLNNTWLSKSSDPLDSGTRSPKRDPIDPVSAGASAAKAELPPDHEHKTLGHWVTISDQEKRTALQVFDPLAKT
Chain of UniProt Q5VW32 (Q5VW32 whole entry): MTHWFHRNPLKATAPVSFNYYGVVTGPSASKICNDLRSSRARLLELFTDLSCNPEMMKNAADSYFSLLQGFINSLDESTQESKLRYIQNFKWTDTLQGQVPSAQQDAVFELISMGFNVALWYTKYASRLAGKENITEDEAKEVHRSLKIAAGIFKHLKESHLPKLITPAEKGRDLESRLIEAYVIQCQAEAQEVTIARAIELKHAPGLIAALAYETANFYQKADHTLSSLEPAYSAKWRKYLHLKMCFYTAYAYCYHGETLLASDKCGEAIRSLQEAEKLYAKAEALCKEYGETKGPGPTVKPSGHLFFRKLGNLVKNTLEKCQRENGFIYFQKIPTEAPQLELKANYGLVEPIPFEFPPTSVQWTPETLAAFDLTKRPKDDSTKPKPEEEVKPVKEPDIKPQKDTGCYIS
Chain of UniProt Q8IWZ8 (Q8IWZ8 whole entry): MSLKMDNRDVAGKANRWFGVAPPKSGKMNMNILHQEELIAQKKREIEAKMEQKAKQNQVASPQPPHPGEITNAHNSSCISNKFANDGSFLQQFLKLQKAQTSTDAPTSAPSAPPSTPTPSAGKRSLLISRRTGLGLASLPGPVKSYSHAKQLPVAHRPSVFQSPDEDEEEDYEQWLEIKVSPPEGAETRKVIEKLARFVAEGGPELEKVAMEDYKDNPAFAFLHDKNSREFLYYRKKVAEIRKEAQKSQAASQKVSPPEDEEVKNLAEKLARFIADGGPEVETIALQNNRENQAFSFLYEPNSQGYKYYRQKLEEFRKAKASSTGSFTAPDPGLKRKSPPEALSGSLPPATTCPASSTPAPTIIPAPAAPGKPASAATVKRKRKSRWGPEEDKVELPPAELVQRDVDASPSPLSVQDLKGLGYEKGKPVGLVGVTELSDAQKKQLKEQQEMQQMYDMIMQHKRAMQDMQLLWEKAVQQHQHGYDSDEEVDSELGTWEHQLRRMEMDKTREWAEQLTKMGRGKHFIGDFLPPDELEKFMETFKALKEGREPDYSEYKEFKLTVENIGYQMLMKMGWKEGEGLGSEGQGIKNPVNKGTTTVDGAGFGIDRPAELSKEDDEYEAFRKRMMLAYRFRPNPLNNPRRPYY
Chain of UniProt Q9Y673 (Q9Y673 whole entry): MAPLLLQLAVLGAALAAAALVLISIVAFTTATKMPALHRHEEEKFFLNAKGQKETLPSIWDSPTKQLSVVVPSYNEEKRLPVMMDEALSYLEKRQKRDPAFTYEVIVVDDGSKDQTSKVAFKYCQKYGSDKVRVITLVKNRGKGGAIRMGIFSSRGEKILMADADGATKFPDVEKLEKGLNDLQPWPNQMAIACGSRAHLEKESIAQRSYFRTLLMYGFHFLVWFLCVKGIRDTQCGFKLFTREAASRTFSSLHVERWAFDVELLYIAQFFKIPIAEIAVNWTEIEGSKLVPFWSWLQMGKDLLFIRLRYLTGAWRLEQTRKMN
Chain of UniProt Q9BSJ2 (Q9BSJ2 whole entry): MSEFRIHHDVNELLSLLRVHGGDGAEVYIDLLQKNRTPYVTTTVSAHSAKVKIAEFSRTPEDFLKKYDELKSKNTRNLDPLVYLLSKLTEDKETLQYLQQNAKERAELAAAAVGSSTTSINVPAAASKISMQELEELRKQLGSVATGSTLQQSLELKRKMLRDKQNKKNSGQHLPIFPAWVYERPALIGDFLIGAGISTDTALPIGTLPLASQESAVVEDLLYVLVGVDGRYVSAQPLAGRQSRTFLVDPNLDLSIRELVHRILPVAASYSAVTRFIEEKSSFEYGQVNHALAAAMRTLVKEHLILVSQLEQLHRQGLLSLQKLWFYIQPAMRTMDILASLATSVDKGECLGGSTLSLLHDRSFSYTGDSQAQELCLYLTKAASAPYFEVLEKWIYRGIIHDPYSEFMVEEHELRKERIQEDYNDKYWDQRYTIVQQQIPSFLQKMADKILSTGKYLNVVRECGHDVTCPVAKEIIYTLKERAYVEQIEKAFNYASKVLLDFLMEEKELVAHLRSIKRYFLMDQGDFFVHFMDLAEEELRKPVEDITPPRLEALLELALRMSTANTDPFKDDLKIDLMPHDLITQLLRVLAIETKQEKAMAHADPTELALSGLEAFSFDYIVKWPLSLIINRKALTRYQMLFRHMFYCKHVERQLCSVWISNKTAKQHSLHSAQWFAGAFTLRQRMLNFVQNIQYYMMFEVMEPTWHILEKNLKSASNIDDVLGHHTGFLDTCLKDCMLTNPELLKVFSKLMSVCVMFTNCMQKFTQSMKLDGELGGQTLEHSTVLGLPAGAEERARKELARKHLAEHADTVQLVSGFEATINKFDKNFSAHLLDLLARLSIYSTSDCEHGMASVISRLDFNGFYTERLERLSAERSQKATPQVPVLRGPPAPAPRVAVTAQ
Chain of UniProt P28715 (P28715 whole entry): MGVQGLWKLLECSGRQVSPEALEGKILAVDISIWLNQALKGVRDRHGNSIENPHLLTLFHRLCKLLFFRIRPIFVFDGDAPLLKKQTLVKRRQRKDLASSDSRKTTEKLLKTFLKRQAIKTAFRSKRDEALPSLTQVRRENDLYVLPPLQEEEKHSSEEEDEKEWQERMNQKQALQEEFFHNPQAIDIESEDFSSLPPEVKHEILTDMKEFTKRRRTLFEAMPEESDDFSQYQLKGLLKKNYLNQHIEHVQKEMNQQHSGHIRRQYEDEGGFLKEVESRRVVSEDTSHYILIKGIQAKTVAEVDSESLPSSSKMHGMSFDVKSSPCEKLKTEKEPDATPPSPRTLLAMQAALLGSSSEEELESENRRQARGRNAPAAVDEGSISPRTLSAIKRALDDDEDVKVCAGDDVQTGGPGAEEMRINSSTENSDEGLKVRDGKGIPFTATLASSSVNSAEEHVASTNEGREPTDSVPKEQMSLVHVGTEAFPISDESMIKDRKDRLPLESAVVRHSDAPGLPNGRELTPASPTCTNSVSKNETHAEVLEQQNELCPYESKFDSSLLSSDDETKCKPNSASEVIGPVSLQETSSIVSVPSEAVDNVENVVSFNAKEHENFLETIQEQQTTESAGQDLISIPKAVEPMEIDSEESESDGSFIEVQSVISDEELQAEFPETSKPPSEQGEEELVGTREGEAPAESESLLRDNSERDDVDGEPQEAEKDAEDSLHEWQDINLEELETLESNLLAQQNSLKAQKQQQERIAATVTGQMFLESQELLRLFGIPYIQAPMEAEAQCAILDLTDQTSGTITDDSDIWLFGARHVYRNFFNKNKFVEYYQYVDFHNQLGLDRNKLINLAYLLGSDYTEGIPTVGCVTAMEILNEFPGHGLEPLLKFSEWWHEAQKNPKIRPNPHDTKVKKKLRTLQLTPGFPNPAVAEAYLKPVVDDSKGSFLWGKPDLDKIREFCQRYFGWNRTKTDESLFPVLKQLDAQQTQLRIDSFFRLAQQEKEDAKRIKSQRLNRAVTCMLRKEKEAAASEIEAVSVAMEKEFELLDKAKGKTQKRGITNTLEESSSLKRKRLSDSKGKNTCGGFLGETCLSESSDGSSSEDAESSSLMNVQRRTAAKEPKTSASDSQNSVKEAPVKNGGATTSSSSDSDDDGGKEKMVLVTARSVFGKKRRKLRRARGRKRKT

Target	thermal stability z-score (potassium arsenate)	thermal stability z-score (lipoamide; [1])	thermal stability z-score (lipoamide; arsenate co-treatment: none)
EXTL2 (UniProt Q9UBQ6)	0.453	1.05	0.893
RPL15 (UniProt P61313)	-0.589	0.537	0.113
BROX (UniProt Q5VW32)	-0.0457	1.03	1.02
TCEAL4 (UniProt Q96EI5)	-0.306	0.347	0.201
SCRN2 (UniProt Q96FV2)	-0.185	0.553	-0.0583
ELMOD2 (UniProt Q8IZ81)	0.198	-0.403	-0.238
GORASP2 (UniProt Q9H8Y8)	0.824	0.45	-0.749
VTA1 (UniProt Q9NP79)	-0.12	0.703	0.296
MRRF (UniProt Q96E11)	0.97	0.298	0.823
GMPPA (UniProt Q96IJ6)	-0.0973	-0.54	-1.04
NCK1 (UniProt P16333)	-0.0139	-0.705	-0.905
TBC1D13 (UniProt Q9NVG8)	-0.494	0.33	0.109
ERCC5 (UniProt P28715)	0.401	0.121	0.0638
SCARB1 (UniProt Q8WTV0)	0.58	0.0511	0.144
SYNJ2 (UniProt O15056)	-0.0134	0.0806	0.0587
COG8 (UniProt Q96MW5)	0.149	0.022	0.151
CNPY3 (UniProt Q9BT09)	-0.0267	-4.03	-4.98
TMEM63A (UniProt O94886)	-0.159	-0.739	-0.0217
TPRKB (UniProt Q9Y3C4)	-0.881	-0.134	-0.764
RHEB (UniProt Q15382)	1.46	-0.13	0.625
SDHAF3 (UniProt Q9NRP4)	-0.145	-0.644	-0.535
SNRNP200 (UniProt O75643)	-0.662	-0.116	-0.285
HEATR3 (UniProt Q7Z4Q2)	0.285	-0.189	0.0325
NIP7 (UniProt Q9Y221)	-0.111	0.337	-0.869
R3HDM1 (UniProt Q15032)	0.0316	0.0761	0.111
DHTKD1 (UniProt Q96HY7)	-0.558	-0.237	0.0606
C1ORF174 (UniProt Q8IYL3)	-0.845	-2.39	-1.46
C11ORF31|SELH	-0.153	0.115	0.162

Target	thermal stability z-score (potassium arsenate)	thermal stability z-score (lipoamide; [1])	thermal stability z-score (lipoamide; arsenate co-treatment: none)
AGPAT3 (UniProt Q9NRZ7)	-0.114	-0.336	0.305
RANBP2 (UniProt P49792)	1.49	-0.733	-0.425
SUGP1 (UniProt Q8IWZ8)	0.928	0.164	-0.049
LSR (UniProt Q86X29)	-0.177	0.221	-0.243
COX4I1 (UniProt P13073)	0.514	0.239	0.296
FBXO9 (UniProt Q9UK97)	-0.61	-0.495	-1.62
WDR1 (UniProt O75083)	-0.59	0.454	0.0649
VAPA (UniProt Q9P0L0)	-1.14	0.25	-0.0574
FBXL20 (UniProt Q96IG2)	-0.992	-1.2	-1.06
HOOK1 (UniProt Q9UJC3)	-0.199	-1.15	-0.591
ALDH18A1 (UniProt P54886)	-1.34	-0.0576	0.0663
TUBGCP2 (UniProt Q9BSJ2)	0.27	-0.0736	-0.0416
DHRS1 (UniProt Q96LJ7)	0.812	-0.121	0.743
FAM114A2 (UniProt Q9NRY5)	0.222	-0.354	-0.328
UQCC1 (UniProt Q9NVA1)	1.5	0.493	0.855
ANKHD1 (UniProt Q8IWZ3)	0.37	-0.133	-0.523
APP (UniProt P05067)	0.137	-1.82	-1.75
APAF1 (UniProt O14727)	-0.00853	-0.167	-0.0627
OXCT1 (UniProt P55809)	-1.12	-0.159	-0.108
TIA1 (UniProt P31483)	-1.08	-0.376	0.000117
SPC24 (UniProt Q8NBT2)	-0.0105	-0.122	0.106
ALG5 (UniProt Q9Y673)	0.347	0.39	-0.1
PSMB7 (UniProt Q99436)	0.481	1.04	0.99
TRAPPC9 (UniProt Q96Q05)	0.167	0.0964	-0.258
ENDOG (UniProt Q14249)	-0.245	-1.25	-0.145
SHQ1 (UniProt Q6PI26)	0.000909	-0.105	0.0326
RTFDC1 (UniProt Q9BY42)	-1.48	-1.39	-0.367
